In patent US20250325712A1, “TARGETING LIGANDS FOR DISEASE-TARGETED IMAGING AGENTS AND METHODS OF USE THEREFOR” (Curadel Surgical Innovations, Inc., priority 2024, published 2025):

Test: Stability of dyes in 37° C. buffered fetal bovine serum (normalized absorbance and absorbance spectra over time)
Assay type: in vitro ADME
Conditions: compared to ZW800-1
Procedure: The normalized absorbance of ZW800-1 and ZW700-1c in 37° C. buffered FBS, pH 7.4 over time from 0 to 60 hours are shown in FIGS. 2-4.

CC1(C)C(/C=C/C(=C/C=C2/N(CCC[N+](C)(C)C)c3ccc(S(=O)(=O)[O-])cc3C2(C)C)c2ccc(CCC(=O)[O-])cc2)=[N+](CCC[N+](C)(C)C)c2ccc(S(=O)(=O)[O-])cc21 [ZW700-1c]
stability: normalized absorbance over time (37° C. buffered FBS, pH 7.4, 0 to 60 hours): extreme stability | stability over time: changes in absorption spectra during metabolism in warm serum (warm serum (37° C. buffered FBS, pH 7.4, 0 to 48 hours)): high stability
